US20090215778A1, “Alpha-substituted Arylmethyl Piperazine Pyrazolo [1,5-alpha]Pyrimidine Amide Derivatives” (priority 2007, published 2009)

How the values were obtained:
[1] = target: T1, HIV Env six-helix bundle (6HB) structure (Human immunodeficiency virus type 1 group M subtype B, UniProt P04579); test: Six-helix bundle (6HB) assay; assay type: cell-based, HIV-1 (strain RF)
T1 construct: H9 cells chronically infected with HIV-1 (H9/HIV-1RF); endogenous in cells; host or cells: H9 cells chronically infected with HIV-1 strain RF (Env is made from the virus in the infected cells, not by transfection)
T1 sequence (P04579 32-519): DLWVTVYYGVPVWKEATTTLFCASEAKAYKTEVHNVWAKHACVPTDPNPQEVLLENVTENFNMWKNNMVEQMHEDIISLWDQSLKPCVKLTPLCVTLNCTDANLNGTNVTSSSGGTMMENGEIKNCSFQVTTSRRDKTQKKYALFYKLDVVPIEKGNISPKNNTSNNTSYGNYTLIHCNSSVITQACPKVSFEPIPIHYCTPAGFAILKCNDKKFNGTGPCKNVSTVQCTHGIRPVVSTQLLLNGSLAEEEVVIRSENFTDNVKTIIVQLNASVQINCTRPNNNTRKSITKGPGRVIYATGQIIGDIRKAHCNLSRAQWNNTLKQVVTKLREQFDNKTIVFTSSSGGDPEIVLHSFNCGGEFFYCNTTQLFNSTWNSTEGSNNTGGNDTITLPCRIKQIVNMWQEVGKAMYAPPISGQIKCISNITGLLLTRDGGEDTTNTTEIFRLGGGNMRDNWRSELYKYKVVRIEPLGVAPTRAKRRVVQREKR
T1 sequence (P04579 520-865): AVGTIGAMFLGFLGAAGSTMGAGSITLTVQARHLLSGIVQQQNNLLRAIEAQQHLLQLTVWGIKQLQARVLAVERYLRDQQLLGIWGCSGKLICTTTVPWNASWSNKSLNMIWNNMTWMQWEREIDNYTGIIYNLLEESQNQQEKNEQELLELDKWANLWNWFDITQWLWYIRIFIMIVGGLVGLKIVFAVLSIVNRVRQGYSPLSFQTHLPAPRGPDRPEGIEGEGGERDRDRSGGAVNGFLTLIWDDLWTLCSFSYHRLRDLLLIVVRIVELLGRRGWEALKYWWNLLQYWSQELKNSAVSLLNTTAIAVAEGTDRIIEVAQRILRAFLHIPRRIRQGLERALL
Outline: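 Flow cytometry measured binding of a six-helix-bundle-specific polyclonal antibody, detected with PE-labelled secondary at 4 °C for 45 min, on H9/HIV-1 RF chronically infected cells. Compound was given 30 min at 37 °C before 1 μg/mL soluble CD4 induction for 1 h. Inhibition appears as reduced fluorescence.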

HIV-1, NL4-3 strain = test: Virus infection assay (virus entry and single-cycle infection); assay type: cell-based; details: Human immunodeficiency virus 1, NL43, TZM-b1, read-out: Nl4
Outline: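 Single-cycle entry/infection read-out: β-galactosidase chemiluminescence measured one day after infection. Compounds were present during a 4 h, 37 °C exposure of TZM-b1 reporter cells to NL4-3 virus at MOI 0.01 plus DEAE-dextran (80 μg/mL final), followed by addition of complete medium.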

| SMILES | IC50 [1] [nM] | IC50 (HIV-1, NL4-3 strain) [nM] |
| --- | --- | --- |
| COc1ccc(-c2nc3c(C(=O)N4CCN([C@@H](CO)c5cscc5C)C[C@H]4C)cnn3c(C(F)(F)F)c2C)cc1 [methanone, [(2R)-4-[(1R)-2-hydroxy-1-(4-methyl-3-thienyl)ethyl]-2-methyl-1-piperazinyl][5-(4-methoxyphenyl)-6-methyl-7-(trifluoromethyl)pyrazolo[1,5-α]pyrimidin-3-yl]-] | < 1000 | < 1000 |
| COc1ccc(-c2nc3c(C(=O)N4CCN([C@H](CO)c5ccc(C)s5)C[C@H]4C)cnn3c(C(F)(F)F)c2C)cc1 [methanone, [(2R)-4-[(1R)-2-hydroxy-1-(5-methyl-2-thienyl)ethyl]-2-methyl-1-piperazinyl][5-(4-methoxyphenyl)-6-methyl-7-(trifluoromethyl)pyrazolo[1,5-α]pyrimidin-3-yl]-] | < 1000 | < 1000 |
| COc1ccc(-c2nc3c(C(=O)N4CCN([C@@H](CO)c5ccccc5)C[C@H]4C)cnn3c(C(F)(F)F)c2C)cn1 [methanone, [(2R)-4-[(1R)-2-hydroxy-1-phenylethyl]-2-methyl-1-piperazinyl][5-(6-methoxy-3-pyridinyl)-6-methyl-7-(trifluoromethyl)pyrazolo[1,5-α]pyrimidin-3-yl]-] | < 1000 | < 1000 |
| COc1ccc(-c2nc3c(C(=O)N4CCN([C@@H](CO)c5ccccc5)C[C@H]4C)cnn3c(C(F)(F)F)c2OC)cc1 [methanone, [(2R)-4-[(1R)-2-hydroxy-1-phenylethyl]-2-methyl-1-piperazinyl][6-methoxy-5-(4-methoxyphenyl)-7-(trifluoromethyl)pyrazolo[1,5-α]pyrimidin-3-yl]-] | < 1000 | < 1000 |
| COC[C@@H](c1ccccc1)N1CCN(C(=O)c2cnn3c(C(F)(F)F)c(C)c(-c4ccc(OC)cc4)nc23)[C@H](C)C1 [methanone, [(2R)-4-[(1R)-2-methoxy-1-phenylethyl]-2-methyl-1-piperazinyl][5-(4-methoxyphenyl)-6-methyl-7-(trifluoromethyl)pyrazolo[1,5-α]pyrimidin-3-yl]-] | < 1000 | < 1000 |
| COc1ccc(-c2nc3c(C(=O)N4CCN([C@@H](C)c5oc(C)nc5C)C[C@H]4C)cnn3c(C(F)(F)F)c2C)cc1 [methanone, [(2R)-4-[(1S)-1-(2,4-dimethyl-5-oxazolyl)ethyl]-2-methyl-1-piperazinyl][5-(4-methoxyphenyl)-6-methyl-7-(trifluoromethyl)pyrazolo[1,5-α]pyrimidin-3-yl]-] | 1100 to 10000 | 1100 to 10000 |
| COc1ccc(-c2nc3c(C(=O)N4CCN([C@H](CO)c5cccc(OC)c5F)C[C@H]4C)cnn3c(C(F)(F)F)c2C)cc1 [methanone, [(2R)-4-[(1S)-1-(2-fluoro-3-methoxyphenyl)-2-hydroxyethyl]-2-methyl-1-piperazinyl][5-(4-methoxyphenyl)-6-methyl-7-(trifluoromethyl)pyrazolo[1,5-α]pyrimidin-3-yl]-] | < 1000 | < 1000 |
| COc1ccc(-c2nc3c(C(=O)N4CCN([C@H](CO)c5ccccc5F)C[C@H]4C)cnn3c(C(F)(F)F)c2C)cc1 [methanone, [(2R)-4-[(1S)-1-(2-fluorophenyl)-2-hydroxyethyl]-2-methyl-1-piperazinyl][5-(4-methoxyphenyl)-6-methyl-7-(trifluoromethyl)pyrazolo[1,5-α]pyrimidin-3-yl]-] | < 1000 | < 1000 |
| COc1ccc(-c2nc3c(C(=O)N4CCN([C@@H](CO)c5ccco5)C[C@H]4C)cnn3c(C(F)(F)F)c2C)cc1 [methanone, [(2R)-4-[(1S)-1-(2-furanyl)-2-hydroxyethyl]-2-methyl-1-piperazinyl][5-(4-methoxyphenyl)-6-methyl-7-(trifluoromethyl)pyrazolo[1,5-α]pyrimidin-3-yl]-] | < 1000 | < 1000 |
| COc1ccc(-c2nc3c(C(=O)N4CCN([C@@H](C)c5ccco5)C[C@H]4C)cnn3c(C(F)(F)F)c2C)cc1 [methanone, [(2R)-4-[(1S)-1-(2-furanyl)ethyl]-2-methyl-1-piperazinyl][5-(4-methoxyphenyl)-6-methyl-7-(trifluoromethyl)pyrazolo[1,5-α]pyrimidin-3-yl]-] | < 1000 | < 1000 |
| COc1ccc(-c2nc3c(C(=O)N4CCN([C@@H](C)c5ccc(F)c(F)c5)C[C@H]4C)cnn3c(C(F)(F)F)c2C)cc1 [methanone, [(2R)-4-[(1S)-1-(3,4-difluorophenyl)ethyl]-2-methyl-1-piperazinyl][5-(4-methoxyphenyl)-6-methyl-7-(trifluoromethyl)pyrazolo[1,5-α]pyrimidin-3-yl]-] | < 1000 | < 1000 |
| COc1ccc(-c2nc3c(C(=O)N4CCN([C@@H](C)c5cc(F)cc(F)c5)C[C@H]4C)cnn3c(C(F)(F)F)c2C)cc1 [methanone, [(2R)-4-[(1S)-1-(3,5-difluorophenyl)ethyl]-2-methyl-1-piperazinyl][5-(4-methoxyphenyl)-6-methyl-7-(trifluoromethyl)pyrazolo[1,5-α]pyrimidin-3-yl]-] | < 1000 | < 1000 |
| COc1ccc(-c2nc3c(C(=O)N4CCN([C@H](CO)c5c(C)noc5C)C[C@H]4C)cnn3c(C(F)(F)F)c2C)cc1 [methanone, [(2R)-4-[(1S)-1-(3,5-dimethyl-4-isoxazolyl)-2-hydroxyethyl]-2-methyl-1-piperazinyl][5-(4-methoxyphenyl)-6-methyl-7-(trifluoromethyl)pyrazolo[1,5-α]pyrimidin-3-yl]-] | 1100 to 10000 | 1100 to 10000 |
| COc1ccc(-c2nc3c(C(=O)N4CCN([C@@H](C)c5cccc(N)c5)C[C@H]4C)cnn3c(C(F)(F)F)c2C)cc1 [methanone, [(2R)-4-[(1S)-1-(3-aminophenyl)ethyl]-2-methyl-1-piperazinyl][5-(4-methoxyphenyl)-6-methyl-7-(trifluoromethyl)pyrazolo[1,5-α]pyrimidin-3-yl]-] | < 1000 | < 1000 |
| COc1ccc(-c2nc3c(C(=O)N4CCN([C@@H](C)c5sccc5Cl)C[C@H]4C)cnn3c(C(F)(F)F)c2C)cc1 [methanone, [(2R)-4-[(1S)-1-(3-chloro-2-thienyl)ethyl]-2-methyl-1-piperazinyl][5-(4-methoxyphenyl)-6-methyl-7-(trifluoromethyl)pyrazolo[1,5-α]pyrimidin-3-yl]-] | < 1000 | < 1000 |
| COc1ccc(-c2nc3c(C(=O)N4CCN([C@@H](C)c5ccc(N)cc5)C[C@H]4C)cnn3c(C(F)(F)F)c2C)cc1 [methanone, [(2R)-4-[(1S)-1-(4-aminophenyl)ethyl]-2-methyl-1-piperazinyl][5-(4-methoxyphenyl)-6-methyl-7-(trifluoromethyl)pyrazolo[1,5-α]pyrimidin-3-yl]-] | 1100 to 10000 | < 1000 |
| COc1ccc(-c2nc3c(C(=O)N4CCN([C@@H](C)c5ccc(F)cc5)C[C@H]4C)cnn3c(C(F)(F)F)c2C)cc1 [methanone, [(2R)-4-[(1S)-1-(4-fluorophenyl)ethyl]-2-methyl-1-piperazinyl][5-(4-methoxyphenyl)-6-methyl-7-(trifluoromethyl)pyrazolo[1,5-α]pyrimidin-3-yl]-] | < 1000 | < 1000 |
| COc1ccc(-c2nc3c(C(=O)N4CCN([C@@H](CO)c5ccc(Cl)s5)C[C@H]4C)cnn3c(C(F)(F)F)c2C)cc1 [methanone, [(2R)-4-[(1S)-1-(5-chloro-2-thienyl)-2-hydroxyethyl]-2-methyl-1-piperazinyl][5-(4-methoxyphenyl)-6-methyl-7-(trifluoromethyl)pyrazolo[1,5-α]pyrimidin-3-yl]-] | < 1000 | < 1000 |
| COc1ccc(-c2nc3c(C(=O)N4CCN([C@H](CO)c5cccnc5OC)C[C@H]4C)cnn3c(C(F)(F)F)c2C)cc1 [methanone, [(2R)-4-[(1S)-2-hydroxy-1-(2-methoxy-3-pyridinyl)ethyl]-2-methyl-1-piperazinyl][5-(4-methoxyphenyl)-6-methyl-7-(trifluoromethyl)pyrazolo[1,5-α]pyrimidin-3-yl]-] | 1100 to 10000 | 1100 to 10000 |
| COc1ccc(-c2nc3c(C(=O)N4CCN([C@H](CO)c5ccccc5OC)C[C@H]4C)cnn3c(C(F)(F)F)c2C)cc1 [methanone, [(2R)-4-[(1S)-2-hydroxy-1-(2-methoxyphenyl)ethyl]-2-methyl-1-piperazinyl][5-(4-methoxyphenyl)-6-methyl-7-(trifluoromethyl)pyrazolo[1,5-α]pyrimidin-3-yl]-] | < 1000 | < 1000 |
| COc1ccc(-c2nc3c(C(=O)N4CCN([C@H](CO)c5cccc(OC)c5)C[C@H]4C)cnn3c(C(F)(F)F)c2C)cc1 [methanone, [(2R)-4-[(1S)-2-hydroxy-1-(3-methoxyphenyl)ethyl]-2-methyl-1-piperazinyl][5-(4-methoxyphenyl)-6-methyl-7-(trifluoromethyl)pyrazolo[1,5-α]pyrimidin-3-yl]-] | < 1000 | < 1000 |
| COc1ccc(-c2nc3c(C(=O)N4CCN([C@@H](CO)c5cc(C)cs5)C[C@H]4C)cnn3c(C(F)(F)F)c2C)cc1 [methanone, [(2R)-4-[(1S)-2-hydroxy-1-(4-methyl-2-thienyl)ethyl]-2-methyl-1-piperazinyl][5-(4-methoxyphenyl)-6-methyl-7-(trifluoromethyl)pyrazolo[1,5-α]pyrimidin-3-yl]-] | < 1000 | < 1000 |
